The values below are quoted from earlier work in patent publication US20140342022A1, “Natural Product Against Fatigue” (priority 2013, published 2014).

The subject of this data set is EBV-EA activation. The note with it: latently infected cells.

For `O=c1c(O)c(-c2ccc(O)c(O)c2)oc2cc(O)cc(O)c12` [quercetin], the EBV-EA activation entry is given as “inhibits”.
